The values below come from patent US20260265298A1, “PEPTIDE SUBSTRATES AND INHIBITORS OF CATHEPSIN B” (The Regents of the University of California, priority 2023, published 2026).

Assay type in all cases: biochemical
Test [1] deals with T1, cathepsin B in homogenates of human neuroblastoma SHSY-5Y and SK-N-MC cells (Homo sapiens, UniProt P07858).
T1 construct: homogenates of human neuroblastoma cell lines, SHSY-5Y and SK-N-MC, and mouse microglia cell line, BV2; endogenous in cells; host or cells: SH-SY5Y and SK-N-MC human neuroblastoma cell homogenates
Briefly: Cathepsin B (CA-074-sensitive) activity in human neuroblastoma cell homogenates. To be noted: for cathepsin B activity detected in cell homogenate: pH 4.6; for monitoring of cathepsin B (CA-074-sensitive) activity in cell homogenate: pH 4.6, 5.5, 7.2. The procedure: (§1) Cathepsin B activity in human neuroblastoma and mouse microglia. Characterization of Z-Nle-Lys-Arg-AMC substrate in proteolytic activity assays for specific cathepsin B activity of cell homogenates (prepared in 0.32 M sucrose) was conducted at 40 mM citrate phosphate pH 4.6, 5.5, and 7.2, 5 mM DTT, 1 mM EDTA, 100 mM NaCl, 1.2% DMSO, and homogenates of human neuroblastoma cell lines, SHSY-5Y and SK-N-MC, and mouse microglia cell line, BV2. A concentration of 6 μM Z-Nle-Lys-Arg-AMC, Z-Arg-Arg-AMC, and Z-Phe-Arg-AMC substrates were used in the proteolytic activity assays. Cell homogenates were diluted 1:10 prior to addition to assays. […] Assays were performed in 96-well plates at room temperature (25° C.) in a total volume of 100 μl with triplicates. Cell homogenates were incubated with CA-074 or inhibitor controls at RT for 30 minutes in the absence of substrate, followed by addition of substrate and incubation at 37° C. Fluorescence was quantified at 15, 30, and 60 minutes after substrate was added, by a Biotek Synergy HTX microplate reader with excitation at 360 nm, and emission at 460 nm, gain 50, top optics and read height at 1 mm. Prism GraphPad software was used to analyze data.

Test [2] has as its target T2, cathepsin B in homogenates of mouse microglia BV2 cells (Mus musculus, UniProt P10605).
T2 construct: homogenates of human neuroblastoma cell lines, SHSY-5Y and SK-N-MC, and mouse microglia cell line, BV2; endogenous in cells; host or cells: BV2 mouse microglia cells (homogenate; cytosol fraction in the low nutrient stress assay)
Briefly: Cathepsin B (CA-074-sensitive) activity in mouse microglia cell homogenates. Conditions: for cathepsin B activity detected in cell homogenate: pH 4.6; for monitoring of cathepsin B (CA-074-sensitive) activity in cell homogenate: pH 4.6, 5.5, 7.2. The protocol:
as §1

A further test deals with T3, cathepsin S (Homo sapiens, UniProt P25774).
T3 construct: purchased R & D Systems 1183-CY-010
T3 sequence (P25774 115-331): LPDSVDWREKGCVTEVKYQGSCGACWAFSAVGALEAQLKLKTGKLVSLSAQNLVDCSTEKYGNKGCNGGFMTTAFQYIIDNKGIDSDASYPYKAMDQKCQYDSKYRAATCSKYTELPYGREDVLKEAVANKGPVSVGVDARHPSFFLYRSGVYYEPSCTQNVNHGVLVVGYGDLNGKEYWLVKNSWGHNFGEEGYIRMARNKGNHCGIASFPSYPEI
Put plainly: Substrate selectivity: cleavage of AMC substrates by cathepsin S. The protocol:
(§2) Cathepsin B activity with Z-Arg-Arg-AMC and Z-Phe-Arg-AMC substrates at pH 4.6 and 7.2. Cathepsin B (0.04 ng/μL) activity was assessed with Z-Arg-Arg-AMC and Z-Phe-Arg-AMC substrates (40 μM final concentration) (Table 1) in 40 mM citrate phosphate buffer pH 4.6 or Tris-HCl pH 7.2 in 1 mM EDTA, 100 mM NaCl, and 5 mM DTT with incubation at room temperature (25° C.) in triplicate and AMC fluorescence readings per second (RFU/s) (excitation 360 nm, emission 460 nm) were recorded over a period of 30 min by BioTek Synergy HTX plate reader (Software Version 3.08.01). Enzyme initial velocity was calculated using the highest slope recorded for 10 consecutive fluorescent readings within the initial 30 min. The mean and standard deviation (SD) were determined from triplicates. RFU/s were converted to pmol/min/μg (specific activity) using AMC standard curves. All data were plotted, calculated, and analyzed using GraphPad Prism (Version 9.4.1).
(§3) […] Z-Arg-Arg-AMC, and Z-Nle-Lys-Arg-AMC, activity was monitored in 40 mM citrate phosphate (pH 4.6, pH 5.5 and pH 7.2), 1 mM EDTA, 100 mM NaCl, and 5 mM DTT for cathepsin B (0.04 ng/μL), cathepsin K (0.03 ng/μL), cathepsin L (0.03 ng/μL), cathepsin S (0.14 ng/μL), cathepsin V (0.04 ng/μL), and cathepsin X (0.20 ng ng/μL). Since cathepsin X cannot cleave any of the AMC substrates, MCARPPGFSAFK(Dnp)-OH (R & D Systems #ES005) was used to verify that cathepsin X was active.

In another test the target is T4, mouse cathepsin B (Mus musculus, UniProt P10605).
T4 construct: purchased R & D Systems 965-CY-010
T4 sequence (P10605 80-333 limits assumed): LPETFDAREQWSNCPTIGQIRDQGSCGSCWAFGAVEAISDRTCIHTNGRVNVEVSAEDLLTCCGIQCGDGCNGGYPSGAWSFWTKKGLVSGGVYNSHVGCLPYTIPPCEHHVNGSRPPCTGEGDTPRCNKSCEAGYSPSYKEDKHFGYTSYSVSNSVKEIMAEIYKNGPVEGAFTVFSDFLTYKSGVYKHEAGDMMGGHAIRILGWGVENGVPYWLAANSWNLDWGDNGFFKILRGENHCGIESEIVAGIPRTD
Put plainly: Mouse cathepsin B specific activity with AMC substrates. To be noted: pH 4.6, 5.5 and 7.2; 40 μM substrate. The protocol:
FIGS. 11a-11b. […] (FIG. 11a) pH-dependence of mouse cathepsin B activity with Z-Nle-Lys-Arg-AMC compared to Z-Arg-Arg-AMC and Z-Phe-Arg-AMC substrates. Cathepsin B specific activity with the three different substrates (40 μM) were assessed at pH 4.6, 5.5, and 7.2. Data points are shown as the mean+SD (n=3).

The next test concerns the target T5, cathepsin V (Homo sapiens, UniProt O60911).
T5 construct: purchased R & D Systems 1080-CY-010
Put plainly: Substrate selectivity: cleavage of AMC substrates by cathepsin V. The procedure:
as §2, §3

Test [3] addresses T6, human cathepsin B (Homo sapiens, UniProt P07858).
T6 construct: purchased R & D Systems 953-CY-010
Put plainly: Cathepsin B activity with fluorogenic Z-peptide-AMC substrates (specific activity, pH profile). To be noted: for cleavage by cathepsin B: pH 4.6 and 7.2, 40 μM substrate ('Table 1' comparison). The protocol:
as §2
Analysis of pH-dependent cathepsin B activity with fluorogenic substrates designed from MSPMS data. For comparison of cathepsin B activity at pH 4.6, pH 5.5, and pH 7.2 with multiple fluorogenic substrates, cathepsin B (0.04 ng/μL) was incubated with 40 μM substrates consisting of Z-Lys-Arg-AMC. Z-Phe-Arg-AMC. Z-Arg-Arg-AMC. Z-Gly-Lys-Arg-AMC, Z-Val-Lys-Arg-AMC, Z-Tyr-Lys-Arg-AMC. Z-Phe-Lys-Arg-AMC, Z-Trp-Lys-Arg-AMC, Z-Leu-Lys-Arg-AMC, Z-Ala-Lys-Arg-AMC, Z-Nle-Arg-Arg-AMC, and Z-Nle-Lys-Arg-AMC. AMC product formation (RFU/s) was monitored in 40 mM citrate phosphate, pH 4.6 and pH 7.2, 1 mM EDTA, 100 mM NaCl, and 5 mM DTT was determined from the average of RFU/s triplicates at each pH condition.
For analysis of pH-dependent activity cathepsin B (0.04 ng/μL), proteolytic activity was monitored over the pH range of pH 2.2-9.0 in 40 mM citrate phosphate (pH 2.2 to pH 6.6) and 40 mM Tris-HCl (pH 7.0 to 9.0), 1 mM EDTA, 100 mM NaCl, and 5 mM DTT, with preincubation in each pH buffer for 10 min prior to initiating the assay by addition of Z-Nle-Lys-Arg-AMC, Z-Arg-Arg-AMC, or Z-Phe-Arg-AMC to a final concentration of 40 μM to generate the pH curve data.

A further test has as its target T7, cathepsin L (Homo sapiens, UniProt P07711).
T7 construct: active cathepsin L (R & D Systems, #952-CY-010); purchased R & D Systems 952-CY-010
Put plainly: Substrate selectivity: cleavage of AMC substrates by cathepsin L. The procedure: [Worded in the source for another target; used here, by the source, with some conditions changed.] as §2
For evaluation of cathepsin B and cysteine cathepsins for substrate selectivity each cathepsin was incubated with 4 μM substrates consisting of Z-Phe-Arg-AMC. Z-Arg-Arg-AMC, and Z-Nle-Lys-Arg-AMC, activity was monitored in 40 mM citrate phosphate (pH 4.6, pH 5.5 and pH 7.2), 1 mM EDTA, 100 mM NaCl, and 5 mM DTT for cathepsin B (0.04 ng/μL), cathepsin K (0.03 ng/μL), cathepsin L (0.03 ng/μL), cathepsin S (0.14 ng/μL), cathepsin V (0.04 ng/μL), and cathepsin X (0.20 ng ng/μL). Since cathepsin X cannot cleave any of the AMC substrates, MCARPPGFSAFK(Dnp)-OH (R & D Systems #ES005) was used to verify that cathepsin X was active.

A further test addresses T8, cathepsin K (Homo sapiens, UniProt P43235).
T8 construct: active cathepsin K (Abcam, #ab157067); purchased Abcam ab157067
T8 sequence (P43235 115-329): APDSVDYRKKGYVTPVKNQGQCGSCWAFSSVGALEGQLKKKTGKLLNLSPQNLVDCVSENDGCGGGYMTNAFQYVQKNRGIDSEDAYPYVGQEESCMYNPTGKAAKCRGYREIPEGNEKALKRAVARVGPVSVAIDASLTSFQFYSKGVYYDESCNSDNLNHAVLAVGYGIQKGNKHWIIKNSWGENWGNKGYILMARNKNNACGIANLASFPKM
Put plainly: Substrate selectivity: cleavage of AMC substrates by cathepsin K.

Test [4] deals with T6, human cathepsin B. Briefly: Cathepsin B activity with fluorogenic Z-peptide-AMC substrates (specific activity, pH profile). To be noted: pH 4.6 and pH 7.2; substrates at 4 μM (FIG. 3).
[5] abbreviates: CA-074 1 μM, 30 min pre-incubation.
The mark [6] stands for this setting: pH 4.6 and 7.2, 40 μM substrate ('Table 1' comparison).
The mark [7] stands for this setting: pH 4.6, 5.5 and 7.2 (FIGS. 5a-5c).

[ ]: non-standard residue; d: D form. The star is where a group is joined. AMC = Cc1cc(=O)oc2cc(N*)ccc12; Nle = CCCC[C@H](N)C(=O)O; Cbz = O=C(OCc1ccccc1)*

T5 sequence (O60911 114-334): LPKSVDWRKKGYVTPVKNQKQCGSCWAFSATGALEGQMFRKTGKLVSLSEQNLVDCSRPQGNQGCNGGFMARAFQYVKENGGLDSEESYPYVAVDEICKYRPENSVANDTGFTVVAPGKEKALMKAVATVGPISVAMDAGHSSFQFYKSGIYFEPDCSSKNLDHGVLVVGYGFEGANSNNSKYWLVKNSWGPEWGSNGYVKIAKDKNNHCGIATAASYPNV
T2 sequence (P10605 80-333): as the sequence (P10605 80-333 limits assumed) above
T7 sequence (P07711 114-333): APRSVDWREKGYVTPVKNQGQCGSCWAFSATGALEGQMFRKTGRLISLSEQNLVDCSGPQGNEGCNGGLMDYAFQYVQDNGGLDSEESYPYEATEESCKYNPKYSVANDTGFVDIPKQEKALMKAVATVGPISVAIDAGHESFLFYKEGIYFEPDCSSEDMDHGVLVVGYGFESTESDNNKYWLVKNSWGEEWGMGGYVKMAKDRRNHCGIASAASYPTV

`CCCNC(=O)[C@H]1O[C@@H]1C(=O)N[C@H](C(=O)N1CCC[C@H]1C(=O)O)[C@@H](C)CC` [CA-074]: the “effect on cathepsin B activity in cell homogenate” value in test [1] (setting [5]) and in test [2] (setting [5]) was “inhibition” throughout.
Consider Cbz-Arg-Arg-{AMC}, for which, on cathepsin S (setting [6]), the “cleavage by cathepsin S” value is “cleaved by cathepsin B and other cysteine cathepsins L, K, S, and V”. Also, at mouse cathepsin B, the “mouse cathepsin B specific activity” value is reported as “low”. Further, the “cathepsin B activity detected in cell homogenate” value (shortened to “cathepsin B activity detected”) in [1] and in test [2] was “none or little activity” in each case. In addition, the “monitoring of cathepsin B (CA-074-sensitive) activity in cell homogenate” value (“monitoring of cathepsin B” for short) in [1] and in test [2] was “only low cathepsin B activity” in each case. For the same compound, the “cleavage by cathepsin V” value at cathepsin V (setting [7]) is “cleaved by cathepsins L and V”; on cathepsin V (setting [6]), “cleaved by cathepsin B and other cysteine cathepsins L, K, S, and V”. Further, the “cleavage by cathepsin B at acidic pH” value on human cathepsin B [3] (pH 4.6, 40 μM substrate) is recorded as “poor cleavage activity”. Also, the “cleavage by cathepsin B” value at human cathepsin B [3] was “cleaved by cathepsin B and other cysteine cathepsins L, K, S, and V”. Also, at human cathepsin B [3] (pH 4.6 vs pH 7.2), the “specific activity at acidic pH as fraction of specific activity at neutral pH” value is listed as “one-third”. The “cleavage by cathepsin B at neutral pH” value at human cathepsin B [3] (pH 7.2, 40 μM substrate) is on record as “readily cleaved”. In addition, the “cleavage by cathepsin L” value at cathepsin L (setting [7]) is “cleaved by cathepsins L and V”; on cathepsin L (setting [6]), “cleaved by cathepsin B and other cysteine cathepsins L, K, S, and V”. On cathepsin K (setting [6]), the “cleavage by cathepsin K” value is “cleaved by cathepsin B and other cysteine cathepsins L, K, S, and V”.
With Cbz-Phe-Arg-{AMC}, the “cleavage by cathepsin S” value on cathepsin S (setting [6]) was “cleaved by cathepsin B and other cysteine cathepsins L, K, S, and V”. The “mouse cathepsin B specific activity” value on mouse cathepsin B is on record as “moderate specific activity”. The “monitoring of cathepsin B” value in [1] and in test [2] was “detected cathepsin B as well as other cysteine cathepsin activity” each time. In addition, the “cleavage by cathepsin V” value at cathepsin V (setting [7]) was “also cleaved by cathepsins K and V”; on cathepsin V (setting [6]), “cleaved by cathepsin B and other cysteine cathepsins L, K, S, and V”. On human cathepsin B [3], the “cleavage by cathepsin B” value was “cleaved by cathepsin B and other cysteine cathepsins L, K, S, and V”. In addition, the “cleavage by cathepsin L” value is “cleaved by cathepsin L with greater activity than that for cathepsin B” at cathepsin L (setting [7]); “cleaved by cathepsin B and other cysteine cathepsins L, K, S, and V” at cathepsin L (setting [6]). The “cleavage by cathepsin K” value at cathepsin K (setting [7]) was “also cleaved by cathepsins K and V”; on cathepsin K (setting [6]), “cleaved by cathepsin B and other cysteine cathepsins L, K, S, and V”.
For the compound Cbz-[Nle]-Lys-Arg-{AMC}, the “cleavage by cathepsin S” value at cathepsin S (setting [7]) is “not cathepsins L. K. S, and V activities”. For the same compound, the “cathepsin B specific activity compared among substrates” value at human cathepsin B [4] was “higher than all other substrates at both pHs”. Besides, on mouse cathepsin B, the “mouse cathepsin B specific activity” value was “highest specific activity”. Moreover, in test [1], the “cathepsin B activity detected” value is listed as “robust cathepsin B activity” and the “monitoring of cathepsin B” value is given as “highly sensitive for monitoring cathepsin B activity”. Also, the “cleavage by cathepsin V” value at cathepsin V (setting [7]) was “not cathepsins L. K. S, and V activities”. The “pH of maximal activity” value on human cathepsin B [3] (pH profile pH 2 to 9) is recorded as 5.5-6.5 pH. Further, the “cleavage by cathepsin L” value at cathepsin L (setting [7]) is “not cathepsins L. K. S, and V activities”. Moreover, the “cleavage by cathepsin K” value at cathepsin K (setting [7]) was “not cathepsins L. K. S, and V activities”. Further, in test [2], the “cathepsin B activity detected” value is “robust cathepsin B activity” and the “monitoring of cathepsin B” value is listed as “highly sensitive for monitoring cathepsin B activity”.
As to Cbz-[Nle]-Arg-Arg-{AMC}, the results for the “less activity compared to Z-Nle-Lys-Arg-AMC” value at human cathepsin B [3] (pH 4.6) and at human cathepsin B [3] (pH 7.2) were “about 30%” and around 50%, respectively.
As to Cbz-Lys-Arg-{AMC}, the “cathepsin B specific activity compared among substrates” value on human cathepsin B [4] was “lower activity than Z-Nle-Lys-Arg-AMC”.
Regarding Cbz-Leu-Lys-Arg-{AMC}, at human cathepsin B [4], the “cathepsin B specific activity compared among substrates” value was “less activity than Z-Nle-Lys-Arg-AMC”.
